Calls of active or inactive are those of the source. The rule behind the calls is not given here.

This assay concerns 697B B-cell line, NF-kB luciferase reporter luminescence. In words: NF-kB reporter inhibition in B cells, dose response, selectivity assay for T-cell antigen receptor NF-kB inhibitors, 697B cells, luminescence (AID 489033).
Usually IC50 stands for the concentration needed to halve the response being measured. For the compound `Clc1cccc(Cl)c1/C=N/Nc1c(Cl)cncc1Cl`, the IC50 was > 80 µM (inactive).
To `CCOC(=O)C1CCN(S(=O)(=O)c2c(Cl)ccc3nonc23)CC1` belongs 1.06 µM; to `COc1ccc(NC(=O)/C(Cl)=C(/Cl)S(=O)Cc2ccc(C)cc2)cn1` (stereo not given), less than 0.16 µM.
The same measure for `Cc1ccc(C(=O)c2cc([N+](=O)[O-])ccc2N2CCCCC2)cc1C`: > 80 µM (inactive).
The same measure for `COC(=O)c1ccc(Oc2cc(C)nc(SC)n2)cc1`: > 80 µM (inactive).
For the compound `Cc1c(C(=O)N2CCOCC2)[nH]c2c1C(=O)CC(c1ccccc1Cl)C2` (stereo not given), the IC50 is > 80 µM (inactive).
As to `Cc1cc(-n2c(C)cc(C(=O)CSc3ncnc4ccccc34)c2C)no1`, the IC50 was 67 µM (inactive).
The same measure for `CCOC(=O)c1ccc(NC(=O)Cn2cnc3cc(C)c(C)cc32)cc1`: > 80 µM (inactive); for `O=C(Nc1ccc(S(=O)(=O)N2CCCCC2)cc1)c1ccc(CN2CCOCC2)cc1`: 51.2 µM (inactive).
Regarding `Cc1ccc(NC(=O)C2=C(c3ccccc3)S(=O)(=O)CCS2(=O)=O)cc1`, the IC50 was 0.39 µM.
Take `COc1ccc(OC)c2c1C(=O)C(Cl)=C(Cl)C2=O`: the IC50 was 4.03 µM.
To `CCCCCc1ccc(OCCCC[n+]2ccc(C)cc2)c(CCCCC)c1` belongs 4.21 µM; to `CCOC(=O)C(C)Oc1cccc2c(=O)n(CC(=O)NCc3ccco3)ccc12` (stereo not given), > 80 µM (inactive); to `O=C(Nc1nc(-c2ccccc2)cs1)c1ccc(N2CCOCC2)c([N+](=O)[O-])c1`, 6.64 µM.
On to `Cc1cc(C)c(S(=O)(=O)Nc2ccc3c4c(cccc24)CC3)c(C)c1`, for which the IC50 is > 80 µM (inactive).
As to `CCCCc1ccc(NC(=O)c2ccc(N(C)S(C)(=O)=O)cc2)cc1`, the IC50 is > 80 µM (inactive).
As to `Cc1ccc(NC(=O)CSc2nc(-c3ccco3)cc(C(F)(F)F)n2)cc1C`, the IC50 was > 80 µM (inactive).
The same measure for `Cc1ccc(-c2cc3c(N=O)c4ccccc4c-3n[nH]2)cc1`: 4.58 µM.
To `CSc1nc(N(C)NC(=O)c2cccc(C)c2)c2ccccc2n1` belongs > 80 µM (inactive).
To `COc1cccc(-c2cc(C(=O)Nc3cc(C)n(Cc4ccc(Cl)cc4)n3)no2)c1` belongs > 80 µM (inactive); to `CCO[C@@H]1OC(C(=O)NCc2nc3ccccc3[nH]2)=C[C@H](C(C)(C)C)[C@H]1CCCO`, > 80 µM (inactive).
As for `NC(=O)CC(NC(=O)c1ccc(Br)cc1)c1ccc(N2CCCCCC2)c([N+](=O)[O-])c1` (stereo not given), the IC50 was 47.5 µM (inactive).
For `O=C(c1cn(Cc2ccccc2)nc1-c1ccccc1)N1CCN(c2ccccn2)CC1`, the IC50 was > 80 µM (inactive).
Turning to `Cc1nc(Sc2nnnn2C)c2c3c(sc2n1)CCC3`, the IC50 was > 80 µM (inactive).
Regarding `CCCCCC(=O)N[C@@H](c1ccccc1)[C@@H](O)C(=O)O[C@H]1C[C@@]2(O)[C@@H](OC(=O)c3ccccc3)C3[C@](C)(C(=O)[C@H](OC(C)=O)C(=C1C)C2(C)C)[C@@H](O)C[C@H]1OC[C@@]31OC(C)=O` (stereo not given in full), the IC50 is > 80 µM (inactive).
On to `CNC[C@H](CC1CCCCC1)NC[C@H](Cc1ccccc1)NCCC12CC3CC(CC(C3)C1)C2`, for which the IC50 was 7.73 µM.
To `COc1ccc([C@H]2CC(=O)C=C(c3ccc(OC)cc3OC)C2)cc1` belongs > 80 µM (inactive).
Regarding `COc1cc(C(=O)N2CCN(c3cc(Cl)ccc3Cl)CC2)cc(OC)c1OC`, the IC50 is > 80 µM (inactive).
The same measure for `CCOC(=O)Nc1nc(-c2ccccc2)c(C(=O)c2ccccc2)s1`: > 80 µM (inactive); for `COc1ccc(Nc2ncnc3ccc(Br)cc23)c(OC)c1`: 0.37 µM.
Regarding `Cc1cccc(NS(=O)(=O)c2ccc(-c3cnc(C4CC4)o3)cc2)c1C`, the IC50 was 36.7 µM (inactive).
Take `CCn1ncc(C2=NOC(C(=O)NCc3ccc(Cl)cc3)C2)c1C` (stereo not given): the IC50 is > 80 µM (inactive).
The same measure for `O=[N+]([O-])c1ccc(Sc2ccc(Cl)c(Cl)c2)nc1`: 13.1 µM; for `CCOc1ccc(N(C)S(=O)(=O)c2ccc(-c3cc(C)no3)s2)cc1`: > 80 µM (inactive); for `CCN(CC)S(=O)(=O)c1cc(NC(=O)CNc2cccc(S(=O)(=O)N3CCCC3)c2)ccc1C`: > 80 µM (inactive).
The same measure for `CCN(CC)c1ccc(-c2nn3c(-c4ccccc4OC)nnc3s2)cc1`: > 80 µM (inactive); for `C[C@@H]1O[C@@H](O[C@H]2C[C@@H](O)[C@]3(CO)[C@@H]4C(CC[C@]3(O)C2)[C@@]2(O)CC[C@H](C3COC(=O)C3)[C@@]2(C)C[C@H]4O)[C@H](O)[C@H](O)[C@H]1O` (stereo not given in full): 12.2 µM.
Consider `COc1ccc(NC(=O)/C(Cl)=C(/Cl)S(=O)Cc2ccc(Cl)cc2)cn1` (stereo not given), for which the IC50 is 0.18 µM.
To `Cc1ccc(-n2ncc3c(N4CCN(c5ccccc5)CC4)ncnc32)c(C)c1` belongs 5.39 µM; to `CC(=O)NC(c1ccc(C(C)C)cc1)c1ccc2cccnc2c1O` (stereo not given), > 80 µM (inactive).
The same measure for `CCOC(=O)N=Nc1c2ccccc2c2nc3no[nH]c3nc12`: 2.28 µM; for `COc1cc2c(c(OC)c1OC)-c1ccc(O)cc1[C@@H](NC(C)=O)CC2`: > 80 µM (inactive); for `CCCC(=O)Nc1nc2ccc(NC(=O)c3c(F)c(F)c(OC)c(F)c3F)cc2s1`: > 80 µM (inactive).
The same measure for `CC(C)Nc1ccc(C(CC(N)=O)NC(=O)c2ccc(Br)cc2)cc1[N+](=O)[O-]` (stereo not given): > 80 µM (inactive); for `Cc1ccc(O)c(NC(=O)c2cc(-c3ccco3)on2)c1`: > 80 µM (inactive).
Turning to `CCOC(=O)C(C)Oc1cccc2c(=O)n(CC(=O)NCc3ccc4c(c3)OCO4)ccc12` (stereo not given), the IC50 is > 80 µM (inactive).
The same measure for `CCCCCCCCCCCCCCCC[n+]1ccc(C(N)=O)cc1`: 8.82 µM.
On to `COC(=O)c1ccc2nc(Nc3nc4c(F)cc(F)cc4s3)sc2c1`, for which the IC50 was 24.6 µM (inactive).
As to `Nc1ncn([C@@H]2O[C@H](CO)[C@@H](O)[C@H]2O)c(=O)n1`, the IC50 is 11.9 µM.
To `Cc1ccc(S(=O)(=O)/N=C2\C=C(Nc3ccc(O)cc3)C(=O)c3ccccc32)cc1` belongs 2.04 µM; to `COc1ccc(/C=N/NC(=O)COc2ccccc2-c2ccccc2)cc1`, 76.2 µM (inactive).
To `COC(=O)c1ccccc1NC1=C/C(=N\S(=O)(=O)c2cccs2)c2ccccc2C1=O` belongs 4.91 µM; to `O=C(NN=Cc1c(O)ccc2ccccc12)c1ccc2c(c1)OCO2`, > 80 µM (inactive); to `Cc1cc(NC(=O)CSc2nc3ccccc3c(=O)n2C2CCCC2)no1`, > 80 µM (inactive).
To `O=C1CC(c2cc(F)ccc2F)c2cc3c(cc2N1)CCC3` (stereo not given) belongs > 80 µM (inactive); to `CCOC(=O)c1c(C)[nH]c(C(=O)N/N=C/c2ccc(Br)cc2)c1C`, > 80 µM (inactive); to `Cc1ccc(C)c(N=Nc2ccc(O)c3ncccc23)c1`, 4.44 µM.
Consider `COc1ccc(-c2ccc3oc(-c4ccc(OC)cc4)c(C#CCO)c3c2)cc1`, for which the IC50 was > 80 µM (inactive).
The same measure for `COc1ccc(NC(=O)C(=O)NCC2CCCN2S(=O)(=O)c2ccc(C)cc2)cc1` (stereo not given): > 80 µM (inactive); for `CCOC(=O)C(C)Oc1cccc2c(=O)n(CC(=O)NCc3ccc(F)cc3)ccc12` (stereo not given): > 80 µM (inactive).
The same measure for `C=CC[C@@H](CC/C=C/C=C/CC/C=C\[C@@H]1CSC([C@@H]2C[C@@H]2C)=N1)OC`: 15.3 µM.
Regarding `O=C(Nc1ccc(Oc2cccnc2)nc1)c1ccc(C(F)(F)F)cc1`, the IC50 is 0.25 µM.
To `O=C(Nc1ccc(F)cc1)c1ccc(CN2CCc3ccccc3C2)cc1` belongs > 80 µM (inactive); to `CCCc1cc(C(=O)N/N=C/c2ccc(CC)s2)c2ccccc2n1`, 11.6 µM; to `O=[N+]([O-])c1nn(-c2ccc3c(c2)OCCO3)n(O)c1=Nc1ccccc1`, less than 0.16 µM.
To `CCOC(=O)N/N=C/c1c(C)nn(-c2cccc(C(F)(F)F)c2)c1Cl` belongs > 80 µM (inactive); to `COc1ccc(OC)c(COC(=O)c2cc([N+](=O)[O-])ccc2N2CCOCC2)c1`, > 80 µM (inactive); to `CCCOc1ccc(/C=N/Nc2cc(N3CCOCC3)ncn2)c(O)c1`, 11 µM.
To `CCc1cc(C(=O)NC2CCCc3c2cnn3-c2cccc(C)c2C)n(C)n1` (stereo not given) belongs > 80 µM (inactive).
In the case of `CCN(CC)c1ccc(/C=N/NC(=O)c2cccc(S(=O)(=O)Nc3ccccc3OC)c2)c(O)c1`, the IC50 was 3.3 µM.
`Cc1cc(C(=O)N2CC=C(c3ccccc3)CC2)c2ccccc2n1`: the IC50 is > 80 µM (inactive).
To `COc1cc([C@@H]2c3cc4c(cc3[C@H](O)[C@H]3COC(=O)[C@H]23)OCO4)cc(OC)c1OC` belongs > 80 µM (inactive); to `Cc1ccc2c(c1)COc1c3ccc(C(=O)O)cc3nn1-2`, 13.4 µM; to `COc1ccc(-n2nnnc2-c2cccc(OC)c2)cc1`, > 80 µM (inactive).
Consider `CCOC(=O)COc1cccc2c(=O)n(CC(=O)NCc3ccc(F)cc3)ccc12`, for which the IC50 was > 80 µM (inactive).
As to `C=C(C)C(=O)O[C@H]1C/C(C)=C\C(=O)/C=C(\C)[C@H](O)[C@@H]2OC(=O)C(=C)[C@@H]21`, the half-inhibitory concentration (IC50) was 1.06 µM.
The same measure for `Cc1nc(Nc2nc3c(c(=O)[nH]2)CCC3)nc2ccccc12`: 6.06 µM; for `CCCCC(=O)NC(c1ccc(Cl)cc1)c1ccc2cccnc2c1O` (stereo not given): > 80 µM (inactive); for `CC1CCCN(c2ncnc3c2cnn3-c2ccc(Cl)cc2)C1` (stereo not given): less than 0.16 µM.
To `Cc1cc(-c2ccc(S(=O)(=O)N(C)c3ccc(C)c(C)c3)s2)on1` belongs > 80 µM (inactive); to `COc1ccc(CCNc2nnc(Sc3nnnn3-c3ccccc3)s2)cc1OC`, 18.9 µM; to `CCOC(=O)c1[nH]c(C)c(C(=O)Nc2ccc(C)cc2C)c1C`, 42.3 µM (inactive).
The same measure for `Cc1ccc(NC(=O)Nc2ccnc(-c3cccnc3)n2)cc1`: 1.05 µM.
As to `COC(=O)c1[nH]c2ccc(Br)cc2c1NC(=O)CN1CCN(C2CCCCC2)CC1`, the IC50 was 8.88 µM.
As to `CC(=O)c1ccc(N2CCN(S(=O)(=O)c3ccc4c(c3)CC(C)N4C(=O)C3CC3)CC2)cc1` (stereo not given), the concentration for half-maximal inhibition (IC50) was 0.72 µM.

Values taken from PubChem BioAssay AID489033 (Sanford-Burnham Center for Chemical Genomics, 2010).
